{
  "source": "patent US11622967B2",
  "about": "(SUVEN LIFE SCIENCES LIMITED, priority 2018, dated 2023)",
  "key": {"[1]": {"target": "histamine-3 receptor (in-vivo) (Rattus norvegicus (Rat), UniProt Q9QYN8)", "sequence (Q9QYN8 whole entry)": "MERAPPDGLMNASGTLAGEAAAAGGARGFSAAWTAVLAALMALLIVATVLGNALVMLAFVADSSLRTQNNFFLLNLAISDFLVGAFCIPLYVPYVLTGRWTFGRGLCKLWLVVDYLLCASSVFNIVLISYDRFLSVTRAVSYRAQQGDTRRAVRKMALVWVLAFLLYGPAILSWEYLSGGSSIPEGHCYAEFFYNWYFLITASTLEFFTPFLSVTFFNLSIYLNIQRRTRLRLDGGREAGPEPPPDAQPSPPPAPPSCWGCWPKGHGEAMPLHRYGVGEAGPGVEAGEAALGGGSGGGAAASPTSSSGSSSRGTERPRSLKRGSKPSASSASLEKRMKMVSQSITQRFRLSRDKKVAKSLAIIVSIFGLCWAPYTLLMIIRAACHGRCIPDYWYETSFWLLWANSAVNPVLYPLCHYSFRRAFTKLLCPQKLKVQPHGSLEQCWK", "assay": "(R)-α-methylhistamine induced dipsogenia assay", "conditions": "rats, oral, RAMH 2.5 mg/kg s.c.", "experimental": "The experiment consisted of 3 days. The animals were individually housed in their home cages. 24 h water consumption was recorded for 2 days. Rats were randomized according to average of 2 days water consumption. […] Statistical analysis: Data was compared and assessed by one-way ANOVA followed by Dunnett's post hoc test by using graph pad prism software package."}, "[2]": {"tested_on": "male C57BL/6J mice", "assay": "Sleep and wake profile by telemetric EEG in male C57BL/6J mice", "assay_type": "in vivo, mouse", "conditions": "10 and 30 mg/kg, p.o., first 4 hours post dosing (FIG. 3)", "from_the_text": "Mice were anesthetized with isoflurane (Baxter India Private Limited; 4% in oxygen for induction; 2% for maintenance) and were fixed into the stereotaxic frame (Stoelting, Ill., USA) to perform surgery. An incision was made to reveal bregma from which coordinates were taken. Telemetric transmitter (Model F20-EET; DSI, St. Paul, Minn., USA) was implanted into intraperitoneal cavity of the […] and leads were tunneled subcutaneously to head. One pair of flexible spring electrodes were implanted epidurally into the frontal cortex region at coordinates of AP+1.0 mm, ML±2.0 mm (Franklin and Paxinos, 20074) for recording of EEG and electrodes were fixed to the skull with dental acrylic cement (DENTALON® plus). The second set of lead wires was implanted into the neck nuchal muscle to record EMG. Incision was closed using non absorbable sutures. After a surgical recovery of minimum 2 weeks, animals were acclimatized to the handling procedures and were given a mock dosing for 3 days before the first experimental day.\nOn the day of study, transmitter was switched on using magnet and animals were transferred on to the receiver along with the home cage. Recording was started 3 h after the lights-on using Ponemah (Version 5.2) software. […] Recording was continued for 6 h post treatment. […]\n(§1) Statistical analysis: EEG data was scored with automated standard sleep scoring protocols using Neuroscore. […]"}, "[3]": {"tested_on": "male Wistar rats", "assay": "Sleep and wake profile by telemetric EEG in male Wistar rats", "assay_type": "in vivo, rat", "conditions": "10 and 30 mg/kg, p.o., first 4 hours post dosing (FIG. 2)", "from_the_text": "(§2) Rats were anesthetized with isoflurane (Baxter India Private Limited; 4% in oxygen for induction; 2% for maintenance) and were fixed into the stereotaxic frame (Stoelting, Ill., USA) to perform surgery. An incision was made to reveal bregma from which coordinates were taken. Telemetric transmitter (Model F40-EET; DSI, St. Paul, Minn., USA) was implanted into intraperitoneal cavity of the rat and leads were tunneled subcutaneously to head. One pair of electrodes were implanted epidurally into the frontal cortex region using stainless steel screws (CMA Microdialysis, Stockholm, Sweden) at coordinates of AP+2.0 mm, ML±2.2 mm (Paxinos and Watson, 2004) for recording of EEG and electrodes were fixed to the skull with dental acrylic cement (DENTALON® plus). The second set of lead wires was implanted into the neck nuchal muscle to record electromyogram (EMG). Incision was closed using non absorbable sutures. After a surgical recovery of minimum 2 weeks, animals were acclimatized to the handling procedures and were given a mock dosing for 3 days before the first experimental day.\nOn the day of study, transmitter was switched on using magnet and animals were transferred on to the receiver along with the home cage. […]\nas §1"}, "[4]": {"tested_on": "cortical levels of dopamine and norepinephrine", "assay": "Dopamine and norepinephrine modulation in prefrontal cortex, microdialysis", "assay_type": "in vivo, rat", "conditions": "male Wistar rats, 3-30 mg/kg, p.o. (FIG. 7)", "from_the_text": "(§3) Male Wistar rats (240-300 g body weight) were stereotaxically implanted with a microdialysis guide cannula in prefrontal cortex (PFC; AP: +3.2 mm, ML: −0.5 mm, DV: −1.0 mm) under isoflurane anesthesia. Co-ordinates were taken according to atlas for the rat brain (Paxinos and Watson 2004) with reference points taken from bregma and vertical from the skull. The rats were allowed to recover individually for four days in a round bottom Plexiglas bowl with free access to feed and water.\n(§4) After surgical recovery of 4 days, male Wistar rats were connected to dual quartz lined two-channel liquid swivel (Instech, UK) on a counter balance lever arm, which allowed unrestricted movements of the animal. […]\nQuantitation of dopamine and norepinephrine: Monoamines in dialysate were derivatized with dansyl chloride and quantified using LC-MS/MS based method in calibration ranges of 0.07-15 nmol/L for all […] analytes.\nStatistical analysis: All microdialysis data for dopamine and norepinephrine were plotted as percent change from mean dialysate basal concentrations with 100% defined as the average of four pre-dose values. […] Area under the curve (AUC) values for percent change in neurotransmitter levels were calculated and the statistical significance between the mean AUC value were compared against vehicle treatment using one-way ANOVA followed by Dunnett's test. […]"}, "[5]": {"tested_on": "cortical histamine levels", "assay": "Histamine modulation in prefrontal cortex, microdialysis", "assay_type": "in vivo, rat", "from_the_text": "as §3, §4\nQuantitation of histamine: Histamine concentrations in dialysates were quantified using post-column derivatization with o-phthalaldehyde employing HPLC coupled to fluorescence detector and analysis was carried out in the calibration range of 33-640 fmol/20 μL\nStatistical analysis: All microdialysis data for histamine was plotted as percent change from mean dialysate basal concentrations with 100% defined as the average of five pre-dose values. […] Area under the curve (AUC) values for percent change in histamine levels were calculated and the statistical significance between the mean AUC value were compared against vehicle treatment using one-way ANOVA followed by Dunnett's test. […]"}, "[6]": {"tested_on": "orexin-B-saporin lesioned male Wistar rats", "assay": "Sleep and wake profile by telemetric EEG in orexin-B-saporin lesioned rats (narcolepsy model)", "assay_type": "in vivo, rat", "experimental": "Rats were anesthetized with 4% isoflurane (Baxter India Private Limited) and maintained on 2% isoflurane for entire duration of surgery. Under isoflurane anesthesia, rats were placed into a stereotaxic instrument and received bilateral microinjections of 0.5 μL containing 490 ng of orexin-B-saporin conjugate (Advanced Targeting System, San Diego, Calif., USA) or saline solution in the lateral hypothalamus (coordinates: AP: −3.5 mm; ML: ±1.5 mm; DV: −8.7 mm).^3 Microinjections were performed using a glass micropipette (20 μm at the tip). Analgesic and antibiotic treatment were administered at the end of this procedure.\nas §2, with “After injection of” for “Rats were anesthetized with isoflurane (Baxter India Private Limited; 4% in oxygen for induction; 2% for maintenance) and were fixed into”, “orexin-B-Saporin, telemetric” for “stereotaxic frame (Stoelting, Ill., USA) to perform surgery. An incision was made to reveal bregma from which coordinates were taken. Telemetric”, “2004)^3” for “2004)”, “EMG.” for “electromyogram (EMG).”, “about 3” for “minimum 2”\nOn the day of study, transmitter was switched on using magnet and animals were transferred on to the receiver along with the home cage. Recording was started 1 h before lights-off using Ponemah (Version 5.2) software. […] Recording was continued for 8 h post treatment. EEG and EMG were collected as primary signals and sampled at 500 Hz. Whereas, temperature and activity were sampled at 250 Hz. The data was stored for off-line analysis using NeuroScore software (Version 3.0).\nStatistical analysis: EEG data was scored with automated standard sleep scoring protocols using Neuroscore. Rodent EEG and EMG data was manually classified into one of three sleep/wake states: awake, REM (Rapid eye movement/Paradoxical sleep), or NREM (Non-rapid eye movement/slow wave sleep) according to visual analysis of EEG frequency and amplitude characteristics and EMG activity using 10 s epochs. Waking activity was defined as relatively low-amplitude EEG activity with low power in the low-frequency bands, accompanied by moderate to high level EMG activity. NREM was defined as generally high-amplitude EEG activity with greater power in the low-frequency bands from 0.5-4 Hz, accompanied by minimal EMG activity. REM sleep was characterized by moderate and constant amplitude EEG activity focused in the θ (6-9 Hz) range with no (or only sporadic) EMG activity. […]"}},
  "note": "Counter-ions that a name gives are not always drawn.",
  "data": [
    {"smiles": "O=C(CN1CCOCC1)Nc1ccc(OC2CCN(C3CCC3)CC2)cc1", "note": "[SUVN-G3031, N-[4-(1-Cyclobutylpiperidin-4-yloxy)phenyl]-2-(morpholin-4-yl)acetamidedihydrochloride]", "values": [
      {"measurement": "effect on (R)-α-methylhistamine induced dipsogenia (water consumption)", "setting": "[1]; at 60 min (FIG. 1a)", "value": "blocked"},
      {"measurement": "effect on (R)-α-methylhistamine induced dipsogenia (water consumption)", "setting": "[1]; at 120 min (FIG. 1b)", "value": "blocked"},
      {"measurement": "time spent in wake period compared to vehicle", "setting": "[2]", "value": "significant increase"},
      {"measurement": "time spent in wake period compared to vehicle", "setting": "[3]", "value": "significantly increased"},
      {"measurement": "cortical levels of dopamine", "setting": "[4]", "value": "significant increase"},
      {"measurement": "cortical levels of norepinephrine", "setting": "[4]", "value": "significant increase"},
      {"measurement": "mean AUC of percent change in histamine levels compared to vehicle", "setting": "[5]; male Wistar rats, 0.3, 1 and 10 mg/kg, p.o. (FIG. 6)", "value": "statistically significant"},
      {"measurement": "cortical histamine levels", "setting": "[5]; male Wistar rats, 0.3-10 mg/kg, p.o.", "value": "significant increase"},
      {"measurement": "cataplectic (direct transition of wake to REM) episodes", "setting": "[6]; orexin-B-saporin lesioned rats (FIG. 5)", "value": "decreased"},
      {"measurement": "wake period compared to vehicle", "setting": "[6]; orexin-B-saporin lesioned rats, first 4 hours post dosing (FIG. 4a)", "value": "significant increase"},
      {"measurement": "REM sleep", "setting": "[6]; orexin-B-saporin lesioned rats, first 4 hours post dosing (FIG. 4b)", "value": "significant decrease"},
      {"measurement": "NREM sleep", "setting": "[6]; orexin-B-saporin lesioned rats, first 4 hours post dosing (FIG. 4c)", "value": "no effect"}
    ]}
  ]
}
